{"source": "patent US20200080027A1", "about": "“ADVANCED NOVEL ECO-FRIENDLY COMPOSITIONS” (priority 2015, published 2020)", "origin": "cited, not measured here", "key": {"[1]": {"conditions": "skin contact"}, "human": {"tested_on": "human", "conditions": "human consumption"}, "normal volunteers": {"tested_on": "normal volunteers", "conditions": "15 g/day for 10 days, 18 normal volunteers"}}}
{"molecule": "[K+].[OH-]", "note": "[Potassium hydroxide]", "values": [{"measurement": "concentration of solution that is corrosive", "setting": "[1]", "result": "higher than 2%"}]}
{"molecule": "C/C=C/C=C/C(=O)[O-].[K+]", "note": "[Potassium sorbate]", "values": [{"measurement": "genotoxicity / mutagenicity in vitro", "setting": "human blood cells", "result": "both genotoxic and mutagenic"}, {"measurement": "carcinogenic effects", "setting": "rats", "result": "not been found to have any carcinogenic effects"}, {"measurement": "solubility in water", "setting": "at 20° C.", "result": 58.2, "unit": "%"}, {"measurement": "maximum acceptable daily intake", "setting": "human", "result": 25, "unit": "mg/kg"}]}
{"molecule": "O=C([O-])c1ccccc1.[Na+]", "note": "[Sodium benzoate]", "values": [{"measurement": "doses with no adverse effects in humans", "setting": "humans", "result": "647-825 mg/kg of body weight per day"}]}
{"molecule": "Span 80", "values": [{"measurement": "water solubility", "result": "insoluble in water"}]}
{"molecule": "Xanthan gum", "values": [{"measurement": "laxative effect", "setting": "normal volunteers", "result": "highly efficient laxative"}]}
